Source: patent US20240327493A1 (GEORGE MASON UNIVERSITY, priority 2023, published 2024)
Entries after “also recorded” stand apart in the source; their conditions may differ.

How the values were obtained:
[1] = human serum diluted 1:4 in RPMI, MALDI-TOF-MS, up to 6 hours
Experimental: Human serum was diluted 1:4 in Gibco RPMI 1640 media (ThermoFisher Scientific, Waltham, MA, USA, Cat. No. 11-875-093) for a total of 1 mL and incubated at 37° C. for 15 minutes prior to time course. Next, 1 μL of the peptide stock was added to warmed serum for a final concentration of […] in the master mix. The rest of the time course was performed at room temperature. For each time point, aliquots of 100 μL were removed from the master mix and added to 200 μL of 3% trifluoroacetic acid. Samples were incubated on ice for 15 minutes before centrifugation at 16,000×g for 2.5 minutes. Supernatants were transferred to a clean tube and prepared for desalting via C18 column by adding 100 μL of sample buffer (20% acetonitrile, 2% trifluoroacetic acid) to supernatants before storage at—20° C. overnight. Samples were then processed through Pierce C18 spin columns (ThermoFisher Scientific, Cat. No. 89870) according to the manufacturer's instructions. Desalted samples were dried under nitrogen and stored at −20° C. until mass spectrometry analysis.
For MALDI-TOF-MS analysis, serum stability samples were reconstituted in 200 μL of 0.1% formic acid. Samples were then diluted 1:10 in a MALDI matrix containing a 50 fmol/μL solution of Angiotensin I as a control. […]

[2] = tested on: human PBMCs co-cultured with OVCAR8 cells; experiment: Co-culture of OVCAR8 cells and stimulated human PBMCs, 10:1 OVCAR8:PBMC ratio; type: cell-based; details: MN1.4 450, 100 or 10 μM, 24 hours, FIG. 10A
Experimental: For this model, PBMCs and cancer cells were both stimulated prior to co-culture to promote expression of PD-1 and PD-L1, respectively.
Stimulation of the PBMCs causes them to release inflammatory cytokines including IL-2 and TNFα,
OVCAR8 cells, generously provided by the Gottesman Lab (National Institutes of Health, Bethesda, MD, USA), and MDA-MB-231 cells (American Type Culture Collection, Rockville, MD, USA) were cultured in Gibco RPMI 1640 media (ThermoFisher Scientific, Cat. No. 11-875-093) supplemented with 10% Gibco fetal bovine serum (ThermoFisher Scientific, Cat. No. 10437028), and 1% penicillin/streptomycin (10,000 U/mL pen, 10 mg/mL strcp) from MilliporeSigma (Burlington, MA, USA, Cat. No. P4333). Cells were cultured at 37° C. and 5% CO2. […]
For co-culture experiments with excess OVCAR8 ratios, OVCAR8 cells were seeded at a density of 2×10^5 cells/mL on a 6-well plate and allowed to adhere overnight. […] On Day 3, concentrations of PBMCs and OVCAR8 cells (harvested from a control well) were measured using the QuadCount Automated Cell Counter (Accuris Instruments). The concentration of PBMCs required for a 10:1 OVCAR8:PBMC ratio was calculated from the OVCAR8 concentration. […]
For experiments analyzed via IL-2 PCR-ELISA, the levels of IL-2 in the collected supernatants were measured using the IL-2 Human ProQuantum Immunoassay Kit (ThermoFisher Scientific, Cat. No. A35603). […]

CC[C@H](C)[C@@H]1NC(=O)[C@H](CCSC)NC(=O)[C@H](C)NC(=O)[C@H](CCCNC(=N)N)NC(=O)[C@@H](N)CSSC[C@@H](C(=O)O)NC(=O)[C@H]([C@@H](C)CC)NC(=O)[C@H](CCCNC(=N)N)N(C)C(=O)[C@H](CCCCN)NC(=O)[C@H](Cc2ccc(O)cc2)NC(=O)[C@H](CC(=O)O)NC(=O)[C@H](C)NC(=O)CNC(=O)CNC(=O)[C@H](Cc2ccc(O)cc2)NC(=O)[C@H](CO)NC1=O [SEQ ID NO. 5, CRAMISYGGADYKXIC]
Degradation in serum [1]: still present after 6 hours in serum without significant degradation
IL-2 secretion [2]: secretion of IL-2 reduced in a dose dependent manner
IL-2 secretion ([2]; listed as MN1.4): enhanced the suppression of IL-2 secretion by T cells in a dose-dependent manner; also recorded: decreased released IL-2 in a dose dependent manner
